Results as given in patent publication US20050158435A1, “Process for producing sdg and foods and drinks containing the same” (Suntory Limited, priority 2002, published 2005).

What was measured:
Assay type in all cases: in vivo, rat
ovariectomized rats [1] = assay: Uterine weight in ovariectomized rats
Excerpt: (§1) Wistar-strain female rats (Charles River Japan, Inc.) were used, among which 41 animals were ovariectomized at 6 weeks of age and 9 animals were sham-operated at the same age, and raised on not-purified chow (CE 2; Clea Japan). After a week, the ovariectomized rats were divided into […]. The sham-operated non-ovariectomized group […] was used as a positive control.
(§2) Group I and group V and non-ovariectomized group had free access for 4 weeks to a basic diet consisting of AIN-93M Mix purified diet without Ca (Oriental Yeast Co., Ltd.). Group II, group III and group IV were fed with the basic diet supplemented with 0.1% each of soybean isoflavone, SDG (composition 4), and a combination of soybean isoflavone and SDG, respectively. Group V was treated with 17β estradiol at 1 μg/day by subcutaneous administration through the period of ingesting the test diet. During the raising period, the temperature at the tail skin of the rat was measured with a precision thermometer BAT-12R (Physitemp).
At the end of the studies in Example 7, the rats were autopsied and measured for uterine weight.

ovariectomized rats [2] = assay: Antiobesity effect: body weight changes in ovariectomized rats; details: forced oral administration once a day for 14 days after ovariectomy (FIG. 2)
Excerpt: Female Wister-strain rats at 7 weeks of age were ovariectomized and treated with each sample once a day by forced oral administration using a metal gastric tube for 14 days after surgery. Each group consisted of 8 animals (n=8). The animals were weighed to evaluate the effect on obesity due to increased appetite after the menopause. The samples used were 17β estradiol as a positive control and genistein as a reference sample, which is a major compound of soybean isoflavone. The SDG sample was composition 4.

ovariectomized rats [3] = assay: Bone mass (femoral dry weight) in ovariectomized rats; details: 4 weeks
Excerpt: (§3) It is known that after the menopause bone mass decreases through the activation of osteoclasts due to estrogen decline and causes osteoporotic symptoms. Estrogen decline may disturb the balance of lipid metabolism to cause symptoms such as hyperlipidemia and hypercholesterolemia. Ovariectomized female rats are commonly used as model animals of menopausal symptoms because ovariectomy induces the above symptoms due to the decline of estrogen levels. […] Wistar-strain female rats (Charles River Japan, Inc.) were used, among which 34 animals were ovariectomized (OVX) at 6 weeks of age and 9 animals were sham-operated (Sham) at the same age, and raised on not-purified chow (CE 2; Clea Japan). After 2 weeks, the ovariectomized rats were divided into 4 groups (n=8-9) called groups I to IV. The sham-operated non-ovariectomized group (group V, n=9) was used as a positive control. Group I and group V were free access for 4 weeks to a basic diet consisting of AIN-93M Mix purified diet without Ca (Oriental Yeast Co., Ltd.). […] On the end date of raising the rats, they were weighed and then anatomized to collect blood and dissect the right femur. After adherent tissues were removed, the femur dissected from the rat's right leg was dried at 100° C. for 24 hours and weighed.

ovariectomized rats [4] = assay: Blood triglyceride levels in ovariectomized rats; details: 0.1% in diet, 4 weeks
Excerpt: as §3, with “Evaluation of lipid metabolism-improving effect: Plasma was isolated” for “After adherent tissues were removed, the femur dissected”, “rat blood and assayed” for “the rat's right leg was dried at 100° C.”, “triglyceride by an automatic analyzer (Hitachi).” for “24 hours and weighed.”

ovariectomized rats [5] = assay: Hot flashes model: temperature at the tail skin of ovariectomized rats; details: 0.1% in diet, 4 weeks (FIG. 3)
Protocol: A sharp decline of estrogen levels after the menopause invites hormone imbalance and autonomic failure to cause vasomotor disturbance-like symptoms such as hot flashes. In experimental animals, ovariectomy of female rats induces a rise in the temperature at the tail skin and symptoms corresponding to hot flashes among menopausal symptoms. The temperature at the tail skin was measured in ovariectomized rats treated with SDG and soybean isoflavone.
as §1
as §2, with “Group V was treated with 17β estradiol at 1 μg/day by subcutaneous administration through the period of ingesting the test diet.” left out

`C[C@]12CC[C@@H]3c4ccc(O)cc4CC[C@H]3[C@@H]1CC[C@@H]2O` [17β estradiol] was tested, and the Uterine weight (ovariectomized rats [1]; 1 μg/day subcutaneous administration, ***P < 0.001 vs. group I) was 443.9 ± 28.8*** mg, the Uterine atrophy (ovariectomized rats [1]; autopsy at the end of Example 7) was “did not show uterine atrophy” and the Body weight gain (ovariectomized rats [2]; 0.02 mg/kg) was “body weight gain was inhibited”.

With `O=c1c(-c2ccc(O)cc2)coc2cc(O)cc(O)c12` [genistein] the Body weight gain (ovariectomized rats [2]; 100 mg/Kg) was “body weight gain was inhibited”.

For “secoisolariciresinol diglycoside [composition 4]”, the “Femoral dry weight (per 100 g body weight)” value (ovariectomized rats [3]; ovariectomized Wistar female rats, basic diet supplemented with 0.1% of sample) was 90.9 ± 2.7 mg, the “Inhibition of bone mass decline vs group I (ovariectomized control)” value (ovariectomized rats [3]; ovariectomized rats, 0.1% in diet) was “tendency of inhibiting bone mass decline” and the Uterine weight (ovariectomized rats [1]; 0.1% in diet, 4 weeks) was 105.5 ± 6.8 mg. For the same compound, the “Inhibition of triglyceride increase vs group I” value (ovariectomized rats [4]) was “significant inhibitory effect”, the Blood triglyceride (ovariectomized rats [4]; plasma, *p<0.05, ** vs. group I) was 32.0 ± 3.2* mg/dl and the “Rise in the temperature at the tail skin” value (ovariectomized rats [5]) was “the rise was inhibited”. The Body weight gain (ovariectomized rats [2]; 50 mg/Kg) was “body weight gain was inhibited”.
